What was measured:
[1] = target: T1, human dopamine D5 receptor (Homo sapiens, UniProt P21918); assay: Binding at dopamine D5 receptor; conditions: read-out: hD5 Ki
T1 construct: expressed in transfected cells
Description: (§1) Other receptors: Cell membranes expressing human dopamine D1, D2, D4 and rat D3 receptors were purchased through BioSignal, Inc. (Montreal, Canada). Binding assays using the histamine H1 receptor; dopamine receptors; and α1A, α1B, and α2 adrenergic receptors may be carried out according to the procedures described in U.S. Pat. No. 5,780,485, the disclosure of which is hereby incorporated by reference in its entirety into this application. Binding assays using the dopamine D5 receptor may be carried out according to the procedures described in U.S. Pat. No. 5,882,855, the disclosure of which is hereby incorporated by reference in its entirety into this application. Binding assays for the human α1D adrenergic receptor may be carried out according to the procedures described in U.S. Pat. No. 6,156,518, the disclosure of which is hereby incorporated by reference in its entirety into this application.
(§2) Binding data were analyzed using nonlinear regression and statistical techniques available in the GraphPAD Prism package (San Diego, Calif.). Enzymatic assay data were derived from a standard curve of reference compound data.

human 5HT1E receptor = target: T2, human 5HT1E receptor (Homo sapiens, UniProt P28566); assay: Radioligand binding at human 5HT1E receptor; conditions: read-out: h5HT1E Ki
T2 construct: expressed in transfected cells
Experimental: (§3) Human 5HT1B, 5HT1D, 5HT1E, 5HT1F, and 5HT7 ReceDtors: The cell lysates of LM(tk-) clonal cell line stably transfected with the genes encoding each of these 5HT receptor-subtypes were prepared as described above. Cell membranes were suspended in 50 mM Tris-HCl buffer (pH 7.4 at 37° C.) containing 10 mM MgCl2, 0.2 mM EDTA, 10 µM pargyline, and 0.1% ascorbate. […] Nonspecific binding was determined in the presence of 10 μM serotonin. The bound radioligand was separated by filtration through GF/B filters using a cell harvester.
as §2

[2] = target: T3, human α2C adrenergic receptor (Homo sapiens, UniProt P18825); assay: Binding at human α2C adrenergic receptor; conditions: read-out: hα2C Ki
T3 construct: expressed in transfected cells
Description: as §1, §2

human 5HT1D receptor = target: T4, human 5HT1D receptor (Homo sapiens, UniProt P28221); assay: Radioligand binding at human 5HT1D receptor; conditions: read-out: h5HT1D Ki
T4 construct: expressed in transfected cells
Experimental: as §3, §2

rat D3 receptor = target: T5, rat D3 receptor (Rattus norvegicus, UniProt P19020); assay: Binding at rat dopamine D3 receptor; conditions: read-out: rD3 Ki
T5 construct: purchased BioSignal, Inc. (Montreal, Canada)
Description: as §1, §2

human GAL1 receptor = target: T6, human GAL1 receptor (Homo sapiens, UniProt P47211); assay: Radioligand binding at cloned human GAL1 receptor; conditions: indolones, Table 4, read-out: Ki (nM) GalR 1
T6 construct: expressed in transfected cells
T6 sequence (P47211 1-349): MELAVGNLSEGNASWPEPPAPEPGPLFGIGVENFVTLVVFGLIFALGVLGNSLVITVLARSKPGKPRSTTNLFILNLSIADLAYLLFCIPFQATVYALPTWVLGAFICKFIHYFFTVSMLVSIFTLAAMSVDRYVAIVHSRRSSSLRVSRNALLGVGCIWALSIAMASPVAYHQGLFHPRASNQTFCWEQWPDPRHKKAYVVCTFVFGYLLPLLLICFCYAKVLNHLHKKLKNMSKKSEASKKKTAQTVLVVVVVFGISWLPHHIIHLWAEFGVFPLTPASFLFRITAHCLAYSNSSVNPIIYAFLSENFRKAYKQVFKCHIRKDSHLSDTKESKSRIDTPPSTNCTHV
Experimental: The present invention provides for a method of determining the binding affinity of a GAL3 antagonist, wherein the GAL3 antagonist is dissolved in a “suitable solvent”. A “suitable solvent” means one which permits the measurement of binding affinity of the GAL3 antagonist to the human GAL3 receptor at concentrations less than 1 μM, preferably less than 100 nM. Examples of solvents include, but are not limited to, DMSO, ethanol, N,N-dimethylacetamide, or water. For indolones, the preferred solvent is 3% DMSO (final concentration in the assay). For pyrimidines, the preferred solvent is 1% ethanol/0.09% polypuronic acid F-127 (final concentration in the assay). For any other type of compounds, the preferred solvent is the solvent which permits the measurement of binding affinity of a GAL3 antagonist at the lowest concentration. Once a suitable solvent is ascertained for the binding assay of the human GAL3 receptor, the same solvent is used in assays to determine the binding affinity for instance, at the GAL1 receptor.
The binding properties of the pyrimidines of the present invention were evaluated at the cloned human galanin receptors, GAL1, GAL2, and GAL3, using protocols described herein.
The binding properties of the indolones of the present invention were evaluated at the cloned human galanin receptors, GAL1, GAL2, and GAL3, using protocols described herein.
LM(tk-) cells were stably transfected with the human GAL1 or GAL3 receptor. CHO cells were stably transfected with the human GAL2 receptor.
cDNAs for the human and rat GAL1, and human and rat GAL3 receptors were transfected with a G-418 resistant gene into the mouse fibroblast LM(tk-) cell line by a calcium phosphate transfection method (Cullen, 1967). Stably transfected cells were selected with G-418. Human and rat GAL2 receptors were similarly transfected into CHO cells.
Membranes were harvested from stably transfected LM(tk-) cells. Adherent cells were washed twice in ice-cold phosphate buffered saline (138 mM NaCl, 8.1 mM Na2HPO4, 2.5 mM KCl, 1.2 mM KH2PO4, 0.9 mM CaCl2, 0.5 mM MgCl2, pH 7.4) and lysed by sonication in ice-cold sonication buffer (20 mM Tris-HCl, 5 mM EDTA, pH 7.7). Large particles and debris were cleared by low speed centrifugation (200×g, 5 min, 4° C.). Membranes were collected from the supernatant fraction by centrifugation (32,000×g, 18 min, 4° C.), washed with ice-cold hypotonic buffer, and collected again by centrifugation (32,000×g, 18 min, 4° C.). The final membrane pellet was resuspended by sonication into a small volume of ice-cold binding buffer (−1 ml for every 5 plates: 10 mM NaCl, 20 mM HEPES, 0.22 mM KH2PO4, 1.26 mM CaCl2, 0.81 mM MgSO4, pH 7.4). Protein concentration was measured by the Bradford method (Bradford, 1976) using Bio-Rad Reagent, with bovine serum albumin as a standard. Membranes were held on ice for up to one hour and used fresh, or flash frozen and stored in liquid nitrogen. Membranes were prepared similarly from CHO cells.
Galanin Receptors: Binding assays were performed according to the following published methods: human GAL3 (PCT International Publication No. WO 98/15570), human GAL1 (PCT International Publication No. WO 95/2260) human GAL2 (PCT International Publication No. WO 97/26853).
as §2

[3] = target: T7, human H1 histamine receptor (Homo sapiens, UniProt P35367); assay: Binding at histamine H1 receptor; conditions: read-out: hH1 Ki
T7 construct: expressed in transfected cells
Description: as §1, §2

T7 sequence (P35367 whole entry): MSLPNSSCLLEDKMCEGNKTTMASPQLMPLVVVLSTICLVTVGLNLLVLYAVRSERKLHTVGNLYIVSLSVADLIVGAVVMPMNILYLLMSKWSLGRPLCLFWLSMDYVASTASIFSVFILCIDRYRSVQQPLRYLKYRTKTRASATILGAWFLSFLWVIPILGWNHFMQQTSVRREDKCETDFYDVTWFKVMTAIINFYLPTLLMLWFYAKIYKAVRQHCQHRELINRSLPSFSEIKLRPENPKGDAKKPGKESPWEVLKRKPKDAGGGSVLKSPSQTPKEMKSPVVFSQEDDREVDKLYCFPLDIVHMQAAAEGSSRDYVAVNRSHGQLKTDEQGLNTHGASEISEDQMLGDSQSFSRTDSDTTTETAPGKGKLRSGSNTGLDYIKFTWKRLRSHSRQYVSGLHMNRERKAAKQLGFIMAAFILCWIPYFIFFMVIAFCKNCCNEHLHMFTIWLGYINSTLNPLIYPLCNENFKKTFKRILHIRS
T1 sequence (P21918 whole entry): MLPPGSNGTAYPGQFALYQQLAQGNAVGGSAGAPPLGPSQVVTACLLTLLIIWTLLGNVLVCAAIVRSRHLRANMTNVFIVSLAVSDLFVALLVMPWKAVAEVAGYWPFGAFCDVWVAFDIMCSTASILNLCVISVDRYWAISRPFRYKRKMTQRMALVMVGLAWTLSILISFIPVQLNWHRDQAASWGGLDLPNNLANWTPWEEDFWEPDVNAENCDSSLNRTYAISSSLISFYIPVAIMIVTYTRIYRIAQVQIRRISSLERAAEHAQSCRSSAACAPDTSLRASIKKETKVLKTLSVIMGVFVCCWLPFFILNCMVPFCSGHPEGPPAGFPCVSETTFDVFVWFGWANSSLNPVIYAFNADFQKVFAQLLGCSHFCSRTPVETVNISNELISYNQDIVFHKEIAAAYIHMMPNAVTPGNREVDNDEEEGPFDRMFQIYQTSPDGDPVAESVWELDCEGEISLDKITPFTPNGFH
T5 sequence (P19020 whole entry): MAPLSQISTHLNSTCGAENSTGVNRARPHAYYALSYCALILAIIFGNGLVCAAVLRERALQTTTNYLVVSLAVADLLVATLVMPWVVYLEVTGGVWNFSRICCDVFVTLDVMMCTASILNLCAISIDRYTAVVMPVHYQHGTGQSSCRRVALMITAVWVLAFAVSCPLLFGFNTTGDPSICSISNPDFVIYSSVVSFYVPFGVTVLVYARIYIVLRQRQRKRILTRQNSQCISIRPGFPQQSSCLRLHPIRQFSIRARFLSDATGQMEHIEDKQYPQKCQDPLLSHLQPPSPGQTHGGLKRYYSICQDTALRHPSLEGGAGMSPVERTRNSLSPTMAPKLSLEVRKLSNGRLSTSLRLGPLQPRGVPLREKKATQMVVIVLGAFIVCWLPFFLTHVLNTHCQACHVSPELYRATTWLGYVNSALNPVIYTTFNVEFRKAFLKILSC
T3 sequence (P18825 whole entry): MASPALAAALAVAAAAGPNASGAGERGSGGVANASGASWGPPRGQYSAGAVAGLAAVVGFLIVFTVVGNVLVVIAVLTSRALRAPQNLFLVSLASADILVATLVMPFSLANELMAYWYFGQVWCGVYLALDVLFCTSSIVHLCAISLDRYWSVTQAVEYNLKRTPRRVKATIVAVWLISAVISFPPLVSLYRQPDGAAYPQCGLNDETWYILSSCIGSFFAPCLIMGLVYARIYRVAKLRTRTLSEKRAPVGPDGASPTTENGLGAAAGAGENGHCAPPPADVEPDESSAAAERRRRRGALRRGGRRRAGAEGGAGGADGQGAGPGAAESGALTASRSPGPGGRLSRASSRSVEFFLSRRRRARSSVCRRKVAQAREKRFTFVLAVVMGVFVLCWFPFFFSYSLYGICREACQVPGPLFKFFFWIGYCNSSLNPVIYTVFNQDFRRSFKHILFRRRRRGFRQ
T4 sequence (P28221 whole entry): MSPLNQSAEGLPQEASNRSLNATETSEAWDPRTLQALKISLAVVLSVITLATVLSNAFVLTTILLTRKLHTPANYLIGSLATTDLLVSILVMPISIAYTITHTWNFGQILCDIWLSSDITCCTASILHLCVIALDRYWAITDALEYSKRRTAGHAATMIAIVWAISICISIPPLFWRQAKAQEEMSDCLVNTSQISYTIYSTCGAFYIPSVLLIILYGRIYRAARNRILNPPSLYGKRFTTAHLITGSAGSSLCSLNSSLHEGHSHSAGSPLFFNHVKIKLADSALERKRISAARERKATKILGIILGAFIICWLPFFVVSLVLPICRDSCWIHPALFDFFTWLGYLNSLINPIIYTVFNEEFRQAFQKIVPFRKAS
T2 sequence (P28566 whole entry): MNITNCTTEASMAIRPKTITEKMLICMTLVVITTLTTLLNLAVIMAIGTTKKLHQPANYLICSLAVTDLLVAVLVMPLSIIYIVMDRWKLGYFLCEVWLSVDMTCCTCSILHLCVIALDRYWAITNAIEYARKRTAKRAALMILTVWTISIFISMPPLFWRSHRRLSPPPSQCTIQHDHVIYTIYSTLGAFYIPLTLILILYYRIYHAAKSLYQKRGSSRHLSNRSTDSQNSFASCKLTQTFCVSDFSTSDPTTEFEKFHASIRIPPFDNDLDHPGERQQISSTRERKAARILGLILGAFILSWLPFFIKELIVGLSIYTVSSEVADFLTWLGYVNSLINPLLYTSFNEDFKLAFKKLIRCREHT

O=C1C(=Nc2cccc(C(F)(F)F)c2)c2ccccc2N1c1ccccc1 [Example 92, 1-PHENYL-3-[[3-(TRIFLUOROMETHYL)PHENYL]IMINO]-1,3-DIHYDRO-2H-INDOL-2-ONE]
Ki [1]: 29.3 µM
Ki (human 5HT1E receptor): 18.9 µM
Ki [2]: > 50 µM
Ki (human 5HT1D receptor): 32.1 µM
Ki (rat D3 receptor): 48.2 µM
Ki (human GAL1 receptor): > 10000 nM
Ki [3]: 39.9 µM
